Results taken from PMC6009892, “A novel series of pyrazole-platinum(II) complexes as potential anti-cancer agents that induce cell cycle arrest and apoptosis in breast cancer cells” (Journal of Enzyme Inhibition and Medicinal Chemistry, 2018).

Legend:
[1] = system: human G1/S-specific cyclin D1 in MCF-7 cells; assay: Cyclin D1 ELISA in cell lysates, MCF-7; format: cell-based; conditions: MCF-7, 20 μM, 24 h; untreated cells 2.6 ng/ml
Procedure: Cell lysates: Briefly, trypsinised cells were washed three times with cold PBS and centrifuged at 1000 g for 5 min at 4 °C. The cells (1 × 10^6) were suspended in lysis buffer for whole cell lysates. After centrifugation, the supernatants were frozen immediately at −70 °C. The concentration of human G1/S-specific cyclin D1 was measured. Cells without addition of compounds were treated as controls.
Determination of human G1/S-specific cyclin D1: The high sensitivity assay kit (EIAab) was used to determine the concentration of human G1/S-specific cyclin D1 in cell lysates. The microtiter plate provided in this kit has been pre-coated with an antibody specific to cyclin D1. Standards and samples were added to the appropriate microtiter plate wells. After 2 h of incubation at 37 °C, the plate was incubated with biotin-conjugated antibody for 1 h at 37 °C. Then microplate wells were aspirated and washed three times and then incubated with avidin conjugated to horseradish peroxidase (HRP). Then, a TMB substrate solution was added to each well. […] The enzyme–substrate reaction was terminated by the addition of a sulfuric acid solution and the color change was measured spectrophotometrically at a wavelength of 450 nm ± 2 nm. The concentration of cyclin D1 in the samples was determined by comparing the O.D. of the samples to the standard curve.

[2] = system: MDA-MB-231 breast cancer cells; assay: Mitochondrial membrane potential JC-1, MDA-MB-231; format: cell-based, human; conditions: MDA-MB-231, 20 μM, 24 h; untreated 5.8%
Procedure: Disruption of the MMP was assessed using the lipophilic cationic probe 5,5′,6,6′-tetrachloro-1,1′,3,3′-tetraethylbenzimidazolcarbocyanine iodide (JC-1 MitoScreen kit; BD Biosciences Systems, San Jose, CA), as described previously. Briefly, unfixed cells were washed and re-suspended in PBS supplemented with 10 µg/ml of JC-1. Cells were then incubated for 15 min at room temperature in the dark, washed, and re-suspended in PBS for immediate BD FACSCanto II flow cytometry analysis. The percentage of cells with disrupted MMP was calculated using FACSDiva software (both from BD Biosciences Systems, San Jose, CA).

Cc1cc(C)[n+]([Pt-2]2([n+]3c(C)cc(C)n3CO)[N](c3ccc(C(=N)N)cc3)N=[N+](c3ccc(C(=N)N)cc3)[Pt-2]([n+]3c(C)cc(C)n3CO)([n+]3c(C)cc(C)n3CO)[N](c3ccc(C(=N)N)cc3)N=[N+]2c2ccc(C(=N)N)cc2)n1CO.Cl.Cl.Cl.Cl.O.O [PtPz1, [Pt2(N-hydroxymethyl-3,5-dimethylpyrazole)4(berenil)2]·4HCl·2H2O]
concentration of cyclin D1 [1]: 0.8 ng/mL | percent of cells with decrease ΔΨm [2]: 90.7%
